# Data reported in patent publication US20070254882A1, “Sulfamide Derivatives and Pharmaceutical Composition for Upregulation of Lipid Metabolism Comprising Same” (CRYSTAL GENOMICS, INC., priority 2004, published 2007).
# What was measured:
# human PPAR α [1] = biological target: T1, human PPAR α (Homo sapiens, UniProt Q07869); experiment: Exogeneous PPAR α agonist assay (GAL4 DNA binding domain/PPAR α ligand binding domain, luciferase) in HepG2 cells; type: cell-based; details: 25 μM compound, 48 hours, luciferase activity increase relative to the control
# T1 construct: expressed in transfected cells; host or cells: HepG2 (ATCC HB-8065) or 293T cells (ATCC CRL-1573)
# T1 sequence (Q07869 239-466 limits assumed): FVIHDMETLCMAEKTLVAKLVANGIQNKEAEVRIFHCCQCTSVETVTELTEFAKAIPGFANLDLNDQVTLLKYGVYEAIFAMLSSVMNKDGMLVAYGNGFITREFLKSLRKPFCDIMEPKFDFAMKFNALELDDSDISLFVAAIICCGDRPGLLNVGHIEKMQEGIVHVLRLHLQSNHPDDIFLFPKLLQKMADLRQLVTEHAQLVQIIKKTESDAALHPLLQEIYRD
# Method: Step 1) Exogeneous PPAR α Agonist Assay
# Cross-activation assay of the compounds of Examples 1 to 134 against human PPAR α was carried out using a DNA construct of PPAR α including its ligand binding domain and GAL4 DNA binding domain (Sher et al., Biochemistry 32, 5598-5604, 1993) to analyze whether any of the compounds binds to the ligand binding domain of PPAR α expressed by the construct to affect the PPAR α activity. When the GAL4 DNA binding domainm which is fused with PPAR α ligand binding domain, binds to UAS (upstream activation sequence) of firefly-luciferase, the luciferase is expressed. Therefore, the effect of each of the compounds of Examples on PPAR α activation can be evaluated by analyzing the activation of luciferase.
# Specifically, 2×10^4 of HepG2 (ATCC HB-8065) or 293T cells (ATCC CRL-1573) were aliquotted into each well of a 96-well plate and cultured for overnight at 37° C. in a CO2 incubator (culture condition: DMEM, 10% FBS and 1% antibiotics).
# The transformation of PPAR α DNA was traced as follows. First, a mixture of the following ingredients in amounts per well; Solution A (Promega) containing 50 ng of full length human PPAR α DNA, 50 ng of firefly-luciferase construct, 5 ng of Renilla-luciferase construct, 1.0 μl of PLUS™ reagent, and 8.3 μl of a serum-free medium containing no antibiotics; was prepared and kept at room temperature for 15 min. Solution B, which contained 0.5 μl of Lipofectamine™ reagent and 9.5 μl of serum-free medium without antibiotics per well, and Solution C, which contained 50 μl of serum-free medium per well), were prepared. Solutions A, B and C were mixed together to prepare lipofectamin-DNA complex, and the mixture was kept at room temperature for 15 min. Single layer of cells on each well of a 96-well plate were washed with serum-free DMEM, 70 μl of lipofectamine-DNA complex prepared above was added thereto, the plate was incubated at 37° C. in a 5% CO2 incubator for 3 hours to transform the cells, and […] of a diluted solution of each of the compounds of Examples 1 to 134 per well was added to each well to a final concentration 25 μM, and incubated at 37° C. in a CO2 incubator for 48 hours. Then, the medium was removed, 50 μl of passive lysis buffer (Promega) was added thereto, and the plate was shook at room temperature for 20 min to lysis cells. 40 μl of Luciferase Assay reagent of Dual Luciferase Kit […] per 20 μl of cell lysis buffer was added to the plate, followed by reacting at 20° C. for 8 seconds, and 40 μl of Stop & Glo reagent (Promega) as a stop solution was added thereto to quench the reaction. The luminescence intensities of F-luciferase and R-luciferase were measured with MicroLumat Plus (Berthord Technology).
# human PPAR α [2] = biological target: T1, human PPAR α; experiment: Exogeneous PPAR α agonist assay (GAL4 DNA binding domain/PPAR α ligand binding domain, luciferase) in 293T cells; type: cell-based; design: scale not given here; details: 25 μM compound, 48 hours, luciferase activity increase relative to the control
# Outline: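 HepG2 or 293T cells (2×10^4/well) lipofectamine-transfected 3 hours with PPAR α, UAS firefly-luciferase and Renilla-luciferase constructs. Compounds then added at 25 μM final and incubated 48 hours at 37° C. PPAR α activation measured as dual firefly/Renilla luciferase luminescence.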
Activity at 25 μM Step 1 HepG2 cell (human PPAR α [1]),Activity at 25 μM Step 1 293T cell (human PPAR α [2]),Compound
33,3,"CCN(CC)S(=O)(=O)N(CC(=O)O)Cc1cccc(OCCc2nc(-c3ccc(C)cc3)oc2C)c1 [Example 63, [N—(N,N-diethylamino)sulfonyl-N-[3-[2-[2-(4-methylphenyl)-5-methyloxazol-4-yl]ethoxy]benzyl]amino]acetic acid]"
50,2,"CCN(CC)S(=O)(=O)N(CC(=O)O)Cc1cccc(OCCc2nc(-c3ccc(C(F)(F)F)cc3)oc2C)c1 [Example 67, [N—(N,N-diethylamino)sulfonyl-N-[3-[2-[2-(4-trifluoromethylphenyl)-5-methyloxazol-4-yl]ethoxy]benzyl]amino]acetic acid]"
11,2,"Cc1oc(-c2ccc(C(F)(F)F)cc2)nc1CCOc1cccc(CN(CC(=O)O)S(=O)(=O)N(C)C(C)C)c1 [Example 68, [N—(N-isopropyl-N-methylanmo)sulfonyl-N-[3-[2-[2-(4-trifluoromethylphenyl)-5-methyloxazol-4-yl]ethoxy]benzyl]amino]acetic acid]"
40,2,"C=CCN(C)S(=O)(=O)N(CC(=O)O)Cc1cccc(OCCc2nc(-c3ccc(C(F)(F)F)cc3)oc2C)c1 [Example 69, [N—(N-allyl-N-methylamino)sulfonyl-N-[3-[2-[2-(4-trifluoromethylphenyl)-5-methyloxazol-4-yl]ethoxy]benzyl]amino]acetic acid]"
34,3,"C#CCN(C)S(=O)(=O)N(CC(=O)O)Cc1cccc(OCCc2nc(-c3ccc(C(F)(F)F)cc3)oc2C)c1 [Example 70, [N—(N-methyl-N-propargylamino)sulfonyl-N-[3-[2-[2-(4-trifluoromethylphenyl)-5-methyloxazol-4-yl]ethoxy]benzyl]amino]acetic acid]"
44,2,"Cc1oc(-c2ccc(C(F)(F)F)cc2)nc1CCOc1cccc(CN(CC(=O)O)S(=O)(=O)N2CCCCC2)c1 [Example 71, [N-(piperidinyl)sulfonyl-N-[3-[2-[2-(4-trifluoromethylphenyl)-5-methyloxazol-4-yl]ethoxy]benzyl]amino]acetic acid]"
30,5,"CCN(c1cccc(C)c1)S(=O)(=O)N(CC(=O)O)Cc1cccc(OCCc2nc(-c3ccc(C(F)(F)F)cc3)oc2C)c1 [Example 80, [N—(N-ethyl-N-m-tolylamino)sulfonyl-N-[3-[2-[2-(4-trifluoromethylphenyl)-5-methyloxazol-4-yl]ethoxy]benzyl]amino]acetic acid]"
26,2,"Cc1oc(-c2ccc(C(F)(F)F)cc2)nc1CCOc1cccc(CN(CC(=O)O)S(=O)(=O)N(C)c2cccc(F)c2)c1 [Example 82, [N—[N-(3-fluorophenyl)-N-methylamino]sulfonyl-N-[3-[2-[2-(4-trifluoromethylphenyl)-5-methyloxazol-4-yl]ethoxy]benzyl]amino]acetic acid]"

# Second part, the compound before the results:
Compound,Activity at 25 μM Step 1 HepG2 cell (human PPAR α [1]),Activity at 25 μM Step 1 293T cell (human PPAR α [2])
COc1ccc(N(C)S(=O)(=O)N(CC(=O)O)Cc2cccc(OCc3nc(-c4ccc(C(F)(F)F)cc4)oc3C)c2)cc1 [Example 22],49,4
"Cc1oc(-c2ccc(C(F)(F)F)cc2)nc1COc1cccc(CN(CC(=O)O)S(=O)(=O)N(C)c2cccc(F)c2)c1 [Example 23, [N—[N-(3-fluorophenyl)-N-methylamino]sulfonyl-N-[3-[[2-(4-trifluoromethylphenyl)-5-methyloxazol-4-yl]methoxy]benzyl]amino]acetic acid]",34,5
"Cc1ccc(-c2nc(CCOc3cccc(CN(CC(=O)O)S(=O)(=O)N(C)C(C)C)c3)c(C)o2)cc1 [Example 64, [N—(N-isopropyl-N-methylamino)sulfonyl-N-[3-[2-[2-(4-methylphenyl)-5-methyloxazol-4-yl]ethoxy]benzyl]amino]acetic acid]",30,2
"CCN(CC)S(=O)(=O)N(CC(=O)O)Cc1ccc(OCCc2nc(-c3ccc(C)cc3)oc2C)cc1 [Example 101, [N—(N,N-diethylamino)sulfonyl-N-[4-[2-[2-(4-methylphenyl)-5-methyloxazol-4-yl]ethoxy]benzyl]amino]acetic acid]",45,4
"Cc1ccc(-c2nc(CCOc3ccc(CN(CC(=O)O)S(=O)(=O)N(C)C(C)C)cc3)c(C)o2)cc1 [Example 102, [N—(N-isopropyl-N-methylamino)sulfonyl-N-[4-[2-[2-(4-methylphenyl)-5-methyloxazol-4-yl]ethoxy]benzyl]amino]acetic acid]",46,4
"CCN(c1cccc(C)c1)S(=O)(=O)N(CC(=O)O)Cc1ccc(OCCc2nc(-c3ccc(C)cc3)oc2C)cc1 [Example 111, [N—(N-ethyl-N-m-tolylamino)sulfonyl-N-[4-[2-[2-(4-methylphenyl)-5-methyloxazol-4-yl]ethoxy]benzyl]amino]acetic acid]",25,5
"Cc1ccc(-c2nc(CCOc3ccc(CN(CC(=O)O)S(=O)(=O)N(C)c4cccc(F)c4)cc3)c(C)o2)cc1 [Example 113, [N—[N-(3-fluorophenyl)-N-methylamino]sulfonyl-N-[4-[2-[2-(4-methylphenyl)-5-methyloxazol-4-yl]ethoxy]benzyl]amino]acetic acid]",29,4
"Cc1ccc(-c2nc(COc3cccc(CN([C@@H](C)C(=O)O)S(=O)(=O)N(C)C)c3)c(C)o2)cc1 [Example 124, (S)-2-[N—(N,N-dimethylamino)sulfonyl-N-[3-[(5-methyl-2-p-tolyloxazol-4-yl)methoxy]benzyl]amino]propionic acid]",40,5
"Cc1ccc(-c2nc(COc3cccc(CN([C@H](C(=O)O)C(C)C)S(=O)(=O)N(C)C)c3)c(C)o2)cc1 [Example 125, (S)-3-methyl-2-[N—(N,N-dimethylamino)sulfonyl-N-[3-[(5-methyl-2-p-tolyloxazol-4-yl)methoxy]benzyl]amino]butyric acid]",22,3
"Cc1ccc(-c2nc(COc3cccc(C(C)N(CC(=O)O)S(=O)(=O)N(C)C)c3)c(C)o2)cc1 (stereo not shown) [Example 126, [N—(N,N-dimethylamino)sulfonyl-N-[1-[[3-(5-methyl-2-p-tolyloxazol-4-yl)methoxy]phenyl]ethyl]amino]acetic acid]",62,4
"Cc1ccc(-c2nc(COc3cccc(C(C)N(CC(=O)O)S(=O)(=O)N4CCCC4)c3)c(C)o2)cc1 (stereo not shown) [Example 127, [N-(pyrrolidinyl)sulfonyl-N-[1-[[3-(5-methyl-2-p-tolyloxazol-4-yl)methoxy]phenyl]ethyl]amino]acetic acid]",50,3
"CCN(CC)S(=O)(=O)N(CC(=O)O)C(C)c1cccc(OCc2nc(-c3ccc(C)cc3)oc2C)c1 (stereo not shown) [Example 128, [N—(N,N-diethylamino)sulfonyl-N-[1-[[3-(5-methyl-2-p-tolyloxazol-4-yl)methoxy]phenyl]ethyl]amino]acetic acid]",25,2
